Measurements published in patent publication US4994473A, “Pyridyl containing insecticides” (ICI Americas Inc., priority 1988, dated 1991).

Tests used:
Musca domestica = experiment: Housefly contact test, mortality after 48 hours; format: in vivo, Housefly Musca domestica; settings: μg of the test compound per 25 female flies
Protocol: (§1) The compounds in Table I above were tested for insecticidal activity using the following testing procedures. LC50 values, based on the results of these tests and calculated according to dosage-mortality curves, are expressed in Table II.
The test compound was diluted in acetone and aliquots pipetted onto the bottom of aluminum dishes. To ensure even spreading of the chemical on the bottom of the dishes, 1 ml of acetone containing 0.01% peanut oil was also added to each dish. After all solvents had evaporated, the dishes were placed in circular cardboard cages containing 25 female houseflies, 1-2 days old. The cages were covered on the bottom with cellophane and on the top with tulle netting, and each contained a sugar-water saturated cotton plug for maintenance of the flies. Mortality was recorded after 48 hours. Test levels ranged from 100 μg/25 female houseflies downward. The LC-50 value is expressed below in Table II under the heading "HF", in terms of μg of the test compound per 25 female flies.

Aphis fabae = experiment: Black bean aphid spray test on nasturtium plants, mortality after 48 hours; format: in vivo, Black Bean Aphid Aphis fabae (Scop.); settings: mixed ages, percent of test compound in sprayed solution
Protocol: as §1
Black Bean Aphid Aphis fabae (Scop.)
Nasturtium plants (Tropaeolum sp.) approximately 5 cm tall, were transplanted into sandy loam soil in small cups and infested with 25-50 black bean aphids of mixed ages. Twenty-four hours later they were sprayed to the point of runoff with 50--50 acetone-water solutions of the test compound. Treated plants were held in the greenhouse and mortality was recorded after 48 hours. Test concentrations ranged from 0.05% downward. The LC-50 value is expressed below in Table II under the heading "BA" in terms of percent of the test compound in the sprayed solution.

Tetranychus urticae = experiment: Two-spotted mite acaricidal test on pinto bean plants; format: in vivo, two-spotted mite Tetranychus urticae (Koch); settings: percent concentration in solution, 5-7 days; for LC50 2-SM A: adults; for LC50 2-SM E: eggs
Description: Acaricidal Evaluation Test
The two-spotted mite (2SM) [Tetranychus urticae (Koch)]was employed in tests for miticides. The test procedure was as follows:
Pinto bean plants (Phaseolus sp.) approximately 10 cm tall, were transplanted into sandy loam soil in small cups and thoroughly infested with two-spotted mites of mixed ages and sexes. Twenty-four hours later the infested plants were inverted and dipped for 2-3 seconds in 50--50 acetone-water solutions of the test compound. Treated plants were held in the greenhouse, and 5-7 days later mortality was determined for both adult mites and the nymphs hatching from eggs which were on the plants at the time of treatment. Test concentrations ranged from 0.05% downward. The LC-50 value is expressed below in Table II under the headings "2SM-A" (i.e., adults) and "2SM-E" (i.e. eggs) in terms of percent concentration of the test compound in the solution.

Heliothis virescens = experiment: Tobacco budworm egg dip test; format: in vivo, Tobacco Budworm Heliothis virescens (Fabricius); settings: 2-day old eggs (TBW-E), percent of test compound in solution
Protocol: as §1
Tobacco Budworm Heliothis virescens (Fabricius)
Eggs: Paper towel patches of 2-day old eggs of the tobacco budworm were dipped in acetone solutions of the test compound and placed in petri dishes containing a portion of larval rearing medium. Treated eggs were maintained at 78° F. and mortality was recorded after all control eggs had hatched and the young larvae were feeding on the media. Test concentrations ranged from 0.1% downward. The LC-50 value is expressed below in Table II under the heading "TBW-E" in terms of percent of the test compound in the solution.

Trichoplusia ni = experiment: Cabbage looper larvae leaf-dip test; format: in vivo, Cabbage Looper Trichoplusia ni (Hubner); settings: second instar larvae, percent of test compound in solution, 3-5 days
Protocol: as §1
Cabbage Looper Trichoplusia ni (Hubner)
The test compound was diluted in a 50--50 acetone-water solution Cotyledons of hyzini squash (Calabacita abobrinha), approximately 1×1.5 inches, were immersed in the test solutions for 2-3 seconds and placed on a wire screen to dry. The dried leaves were p1aced in petri dishes containing a moistened piece of filter paper and infested with 5 secondinstar cabbage looper larvae. The dishes were placed in a high humidity chamber. Mortality of the larvae was recorded 3-5 days later. Test concentrations ranged from 0.1% downward. The LC-50 value is expressed below in Table II under the heading "CL" in terms of percent of the test compound in solution.

[1] = tested on: Diabrotica undecimpunctata undecimpunctata; experiment: Western spotted cucumber beetle larvae soil test; format: in vivo; settings: Diabrotica eggs/larvae; ppm of the test compound in the soil
Protocol: as §1
Western Spotted Cucumber Beetle Larvae Diabrotica undecimpunctata undecimpunctata (Mannherheim)
Ten grams of moist potting soil was placed in a plastic cup. The test compound was dissolved in acetone. A 0.05 ml aliquot of the test sample, diluted to the desired concentration, was added to the soil. The cup was capped and the soil was mixed on a vortex mixer for approximately 15 seconds. An indentation was made on the surface of the soil and approximately 50 Diabrotica eggs were added. The eggs were covered with soil and maintained at room temperature (approximately 70° F. or 21° C.). Four days later a section of Romaine lettuce (Latuca sativa) leaf was placed in the treated cups. One week later the cups were examined for live larvae. Test concentrations ranged from 25 ppm downward. The LC-50 value is expressed below in Table II under the heading "Diabrotica" in terms of ppm of the test compound in the soil.

SMILES | LC50 HF (Musca domestica) | LC50 BA (Aphis fabae) | LC50 2-SM A (Tetranychus urticae) | LC50 2-SM E (Tetranychus urticae) | LC50 TBW (Heliothis virescens) | LC50 CL (Trichoplusia ni) | LC50 Diabrotica [1]
COc1ccc(N=C(OCc2cccc(Oc3ccccc3)c2)C(C)C)cn1 [Compound 3] | 7 µg | 0.003% | > 0.05% | > 0.05% | > 0.1% | 0.0075% | > 25 ppm
CC(C)C(=Nc1ccc(C(F)(F)F)cn1)OCc1cccc(Oc2ccccc2)c1 [Compound 4] | 42 µg | 0.05% | > 0.05% | > 0.05% | > 0.1% | 0.008% | > 25 ppm
CC(C)C(=Nc1ccc(F)nc1)OCc1cccc(Oc2ccccc2)c1 [Compound 5] | 8 µg | 0.003% | > 0.05% | > 0.05% | 0.09% | 0.008% | > 25 ppm
CC(C)C(=Nc1c(F)c(F)nc(F)c1F)OCc1cccc(Oc2ccccc2)c1 [Compound 6] | > 100 µg | > 0.05% | > 0.05% | > 0.05% | > 0.1% | 0.004% | > 25 ppm
Clc1ccc(N=C(OCc2cccc(Oc3ccccc3)c2)C2CC2)cn1 [Compound 7] | > 100 µg | > 0.05% | > 0.05% | > 0.05% | > 0.1% | 0.022% | > 25 ppm
Cc1cc(N=C(OCc2cccc(Oc3ccccc3)c2)C(C)C)no1 [Compound 8] | > 100 µg | > 0.05% | > 0.05% | > 0.05% | > 0.1% | 0.1% | > 25 ppm
CC(C)(Cl)C(=Nc1nnc(C(F)(F)F)s1)OCc1cccc(Oc2ccccc2)c1 [Compound 9] | > 100 µg | > 0.05% | > 0.05% | > 0.05% | > 0.1% | 0.035% | > 25 ppm
COC(=O)c1ccc(N=C(OCc2cccc(Oc3ccccc3)c2)C(C)C)o1 [Compound 14] | > 100 µg | > 0.05% | > 0.05% | > 0.05% | > 0.1% | 0.01% | > 25 ppm
COc1ccc(N=C(OCc2cccc(Oc3ccccc3)c2)C2CC2)cn1 [Compound 15] | 58 µg | > 0.05% | > 0.05% | > 0.05% | > 0.1% | 0.05% | > 25 ppm
CC(C)C(=Nc1ccc2nc(-c3ccccc3)oc2c1)OCc1cccc(Oc2ccccc2)c1 [Compound 28] | > 100 µg | > 0.05% | > 0.05% | > 0.05% | > 0.1% | 0.04% | > 25 ppm
CC(C)C(=Nc1ccc(Cl)nc1)SCc1cccc(Oc2ccc(F)cc2)c1 [Compound 29] | > 100 µg | > 0.05% | > 0.05% | > 0.05% | > 0.1% | 0.025% | > 25 ppm
CC(C)C(=Nc1ccc(Cl)nc1)OCc1cccc(Oc2ccc(Cl)cc2)c1 [Compound 30] | 15 µg | > 0.05% | > 0.05% | > 0.05% | 0.1% | 0.0007% | > 25 ppm
CC(C)C(=Nc1cncc(C(F)(F)F)c1)OCc1cccc(Oc2ccccc2)c1 [Compound 33] | 5 µg | > 0.05% | > 0.05% | > 0.05% | 0.075% | 0.0035% | > 25 ppm
CC(C)C(=Nc1cncc(C(F)(F)F)c1)OCc1ccc(F)c(Oc2ccc(Cl)cc2)c1 [Compound 37] | 40 µg | > 0.05% | > 0.05% | > 0.05% | > 0.1% | > 0.1% | > 25 ppm
CSc1ccc(N=C(OCc2cccc(Oc3ccccc3)c2)C(C)C)cn1 [Compound 38] | < 100 µg | 0.005% | > 0.05% | > 0.05% | > 0.1% | > 0.1% | > 25 ppm
CC(C)C(=Nc1ccc(OCC(F)(F)F)nc1)OCc1cccc(Oc2ccc(Cl)cc2)c1 [Compound 39] | > 100 µg | 0.001% | 0.006% | 0.006% | 0.02% | > 0.1% | > 25 ppm
CC(C)C(=Nc1ccc(OCC(F)(F)F)nc1)OCc1cccc(Oc2ccccc2)c1 [Compound 40] | < 100 µg | 0.0003% | 0.006% | 0.006% | 0.045% | 0.00029% | > 25 ppm
CC(C)C(=Nc1ccc(OCC(F)(F)F)nc1)OCc1ccc(F)c(Oc2ccccc2)c1 [Compound 42] | < 100 µg | 0.0004% | 0.006% | 0.006% | 0.017% | 0.000075% | > 25 ppm
CC(C)C(=Nc1ccc(OCC(F)(F)F)nc1)OCc1cccc(Oc2ccc(F)cc2)c1 [Compound 43] | > 100 µg | 0.0003% | 0.006% | 0.006% | 0.02% | 0.00015% | > 25 ppm
CC(C)C(=Nc1ccc(OCC(F)(F)F)nc1)OCc1ccc(F)c(Oc2ccc(Cl)cc2)c1 [Compound 44] | > 100 µg | 0.0003% | 0.001% | 0.001% | 0.01% | 0.00017% | > 25 ppm
CC(C)C(=Nc1ccc(OCC(F)(F)F)nc1)OCc1cccc(Oc2ccccc2)n1 [Compound 45] | < 100 µg | 0.001% | 0.03% | 0.03% | > 0.1% | 0.00075% | > 25 ppm
